{
  "source": "patent US6589967B1",
  "about": "“Oxime O-ether compounds and fungicides for agricultural and horticultural use” (Nippon Soda Co. Ltd., priority 1999, dated 2003)",
  "data": [
    {"tested_on": "snap bean gray mold fungus (Botrytis cinerea)", "assay": "Test on Kidney Bean Gray Mold Control", "assay_type": "in vivo", "details": "50 ppm active ingredient, cut Kidney bean flowers (Nagauzura) dipped, spores sprayed, placed on detached leaves, 7 days at 20° C., high humidity", "experimental": "Now, explanation is made on how the compounds according to the present invention are effective as an active ingredient of a fungicide for controlling various plant diseases with reference to Test examples described later. In the Test Examples, the control efficacy is determined by visually checking the infested state of the test plants at the time of observation, namely, checking the damage to the host plants and the developing state of the disease-causing fungus appeared on leaves, stems, etc. of the test plants, compared to the control test plants which are healthy. Flowers of Kidney bean (variety; Nagauzura) grown in a flat vessel for culturing seedlings are cut, and the cut flowers were dipped into a solution prepared by diluting the emulsifiable concentrate prepared for the compound of the present invention at a concentration of 50 ppm based on the active ingredient. After the dipping, the flowers were dried at a room temperature. Then, spore solution of snap bean gray mold fungus (Botrytis cinerea) was sprayed to the flowers. The flowers sprayed with spores of the gray mold fungus were placed on the leaves which were detached from healthy Kidney bean plants, and those leaves were placed in a room being maintained at 20° C. and high humidity with repeated lighting of 12 hours intervals, and the Kidney bean leaves were incubated in the room for 7 days. Then, the infestation degree by the fungus on the leaves was checked in comparison to the control healthy leaves to determine the control efficacy. […] Note that the compound numbers in the following correspond to the same compound numbers in the Table 1. Compound Nos. 1, 3, 6, 7, 11, 12, 13, 14, 15, 18, 20, 21, 22, 23, 25, 26, 27, 29, 36, 48, 49, 192, 194, 195, 196, 198, 201, 203, 204, 207, 208, 209, 210, 213, 216, 219, 220, 222, 223, 224, 225, 227, 228, 229, 231, 233, 234, 235, 236, 237, 239, 240, 242", "values": [
      {"smiles": "COc1cccc(OC)c1C(C)ON=Cc1cc(C)cc(C)n1", "note": "(racemic) [compound 239]", "control performance (control efficacy)": "excellent control performance"},
      {"smiles": "COc1cccc(F)c1CON=C(C)c1cc(C)cc(C)n1", "note": "[Compound No. 1, 1-(4,6-Dimethyl-2-pyridinyl)ethanone O-[(2-Fluoro-6-methoxyphenyl)methyl]oxime]", "control performance (control efficacy)": "excellent control performance"},
      {"smiles": "COc1cccc(C)c1CON=C(C)c1cc(C)cc(C)n1", "note": "[Compound No. 7, 1-(4,6-Dimethyl-2-pyridinyl)ethanone O-[(2-Methoxy-6-methylphenyl)methyl] Oxime]", "control performance (control efficacy)": "excellent control performance"},
      {"smiles": "COc1ccc(CON=C(C)c2cc(C)cc(C)n2)c(OC)c1", "note": "[Compound No. 13, 1-(4,6-Dimethyl-2-pyridinyl)ethanone O-[(2,4-Dimethoxyphenyl)methyl] Oxime]", "control performance (control efficacy)": "excellent control performance"},
      {"smiles": "COc1cccc(OC)c1CON=C(C)c1cc(Cl)cc(C)n1", "note": "[Compound No. 18, 1-(4-Chloro-6-methyl-2-pyridinyl)ethanone O-[(2,6-Dimethoxyphenyl)methyl] Oxime]", "control performance (control efficacy)": "excellent control performance"},
      {"smiles": "CCC(=NOCc1c(OC)cccc1OC)c1cc(C)cc(C)n1", "note": "[Compound No. 20]", "control performance (control efficacy)": "excellent control performance"},
      {"smiles": "COc1ccc(O)c(CON=C(C)c2cc(C)cc(C)n2)c1", "note": "[Compound No. 21]", "control performance (control efficacy)": "excellent control performance"},
      {"smiles": "COc1ccc(OC)c(CON=C(C)c2cc(C)cc(C)n2)c1", "note": "[Compound No. 22]", "control performance (control efficacy)": "excellent control performance"},
      {"smiles": "COCOc1cccc(OC)c1CON=C(C)c1cc(C)cc(C)n1", "note": "[Compound No. 23]", "control performance (control efficacy)": "excellent control performance"},
      {"smiles": "COc1cccc(CON=C(C)c2cc(C)cc(C)n2)c1O", "note": "[Compound No. 25, 1-(4,6-Dimethyl-2-pyridinyl)ethanone O-[(2-hydroxy-3-methoxyphenyl)methyl] Oxime]", "control performance (control efficacy)": "excellent control performance"},
      {"smiles": "COc1cccc(OC)c1CON=Cc1cc(C)cc(C)n1", "note": "[Compound No. 196, 4,6-Dimethyl-2-pyridinecarboxyaldehyde O-[(2,6-Dimethoxyphenyl)methyl] Oxime]", "control performance (control efficacy)": "excellent control performance"},
      {"smiles": "COc1cccc(OC)c1CON=Cc1cc(Cl)cc(C)n1", "note": "[Compound No. 219, 4-Chloro-6-methyl-2-pyridinecarboxyaldehyde O-[(2,6-Dimethoxyphenyl)methyl] Oxime]", "control performance (control efficacy)": "excellent control performance"},
      {"smiles": "COc1cccc(N)c1CON=Cc1cc(C)cc(C)n1", "note": "[Compound No. 222, 4,6-Dimethyl-2-pyridinecarboxyaldehyde O-[(2-Methoxy-6-aminophenyl)methyl] Oxime]", "control performance (control efficacy)": "excellent control performance"},
      {"smiles": "CNc1cccc(OC)c1CON=Cc1cc(C)cc(C)n1", "note": "[Compound No. 223, 4,6-Dimethyl-2-pyridinecarboxyaldehyde O-[(2-Methoxy-6-methylaminophenyl)methyl] Oxime]", "control performance (control efficacy)": "excellent control performance"},
      {"smiles": "COc1cccc(N(C)C)c1CON=Cc1cc(C)cc(C)n1", "note": "[Compound No. 225, 4,6-dimethyl-2-pyridinecarboxyaldehyde O-[(2-methoxy-6-dimethylaminophenyl)methyl] oxime]", "control performance (control efficacy)": "excellent control performance"},
      {"smiles": "COc1cc(OC)c(CON=Cc2cc(C)cc(C)n2)c(OC)c1", "note": "[Compound No. 233, 4,6-Dimethyl-2-pyridinecarboxyaldehyde O-[(2,4,6-Trimethoxyphenyl)methyl]oxime]", "control performance (control efficacy)": "excellent control performance"},
      {"smiles": "COc1cccc(Br)c1CON=Cc1cc(C)cc(C)n1", "note": "[Compound No. 234, 4,6-Dimethyl-2-pyridinecarboxyaldehyde O-[(2-Methoxy-6-bromophenyl)methyl]oxime]", "control performance (control efficacy)": "excellent control performance"},
      {"smiles": "C#Cc1cccc(OC)c1CON=Cc1cc(C)cc(C)n1", "note": "[Compound No. 235, 4,6-Dimethyl-2-pyridinecarboxyaldehyde O-[(2-Methoxy-6-ethynylphenyl)methyl]oxime]", "control performance (control efficacy)": "excellent control performance"},
      {"smiles": "COc1ccc(Cl)c(OC)c1CON=C(C)c1cc(C)cc(C)n1", "note": "[compound 3]", "control performance (control efficacy)": "excellent control performance"},
      {"smiles": "COCOc1cc(OC)ccc1CON=C(C)c1cc(C)cc(C)n1", "note": "[compound 6]", "control performance (control efficacy)": "excellent control performance"},
      {"smiles": "COc1cccc(OC)c1C(C)ON=C(C)c1cc(C)cc(C)n1", "note": "(centres unmarked) [compound 11]", "control performance (control efficacy)": "excellent control performance"},
      {"smiles": "COCOc1ccc(OC)cc1CON=C(C)c1cc(C)cc(C)n1", "note": "[compound 12]", "control performance (control efficacy)": "excellent control performance"},
      {"smiles": "COc1ccc(CON=C(C)c2cc(C)cc(C)n2)c(O)c1", "note": "[compound 14]", "control performance (control efficacy)": "excellent control performance"},
      {"smiles": "COc1cc(C)ccc1CON=C(C)c1cc(C)cc(C)n1", "note": "[compound 15]", "control performance (control efficacy)": "excellent control performance"},
      {"smiles": "COc1ccc(C)cc1CON=C(C)c1cc(C)cc(C)n1", "note": "[compound 26]", "control performance (control efficacy)": "excellent control performance"},
      {"smiles": "CCc1cccc(OC)c1CON=C(C)c1cc(C)cc(C)n1", "note": "[compound 27]", "control performance (control efficacy)": "excellent control performance"},
      {"smiles": "COc1cccc(Cl)c1CON=C(C)c1cc(C)cc(C)n1", "note": "[compound 29]", "control performance (control efficacy)": "excellent control performance"},
      {"smiles": "COc1cccc(C)c1CON=C(C)c1cc(C)ccn1", "note": "[compound 36]", "control performance (control efficacy)": "excellent control performance"},
      {"smiles": "COc1ccc(F)c(OC)c1CON=Cc1cc(C)cc(C)n1", "note": "[compound 48]", "control performance (control efficacy)": "excellent control performance"},
      {"smiles": "CC(=NOCc1ccc(C)cc1O)c1cc(C)cc(C)n1", "note": "[compound 49]", "control performance (control efficacy)": "excellent control performance"},
      {"smiles": "COCOc1cc(C)ccc1CON=C(C)c1cc(C)cc(C)n1", "note": "[compound 192]", "control performance (control efficacy)": "excellent control performance"},
      {"smiles": "COCOc1c(C)cccc1CON=C(C)c1cc(C)cc(C)n1", "note": "[compound 194]", "control performance (control efficacy)": "excellent control performance"},
      {"smiles": "COc1cccc(OC)c1CON=C(C)c1cc(C)cc(C)n1", "note": "[compound 195]", "control performance (control efficacy)": "excellent control performance"},
      {"smiles": "COc1ccc(F)c(F)c1CON=C(C)c1cc(C)cc(C)n1", "note": "[compound 198]", "control performance (control efficacy)": "excellent control performance"},
      {"smiles": "COc1c(F)ccc(F)c1CON=C(C)c1cc(C)cc(C)n1", "note": "[compound 201]", "control performance (control efficacy)": "excellent control performance"},
      {"smiles": "COc1cccc(C)c1CON=Cc1cc(C)cc(C)n1", "note": "[compound 203]", "control performance (control efficacy)": "excellent control performance"},
      {"smiles": "COc1cccc(F)c1CON=Cc1cc(C)cc(C)n1", "note": "[compound 204]", "control performance (control efficacy)": "excellent control performance"},
      {"smiles": "COc1cccc(CON=C(C)c2cc(C)cc(C)n2)c1OC(C)=O", "note": "[compound 207]", "control performance (control efficacy)": "excellent control performance"},
      {"smiles": "COc1cc(C)cc(OC)c1CON=Cc1cc(C)cc(C)n1", "note": "[compound 208]", "control performance (control efficacy)": "excellent control performance"},
      {"smiles": "COc1cc(C)cc(OC)c1CON=C(C)c1cc(C)cc(C)n1", "note": "[compound 209]", "control performance (control efficacy)": "excellent control performance"},
      {"smiles": "C=Cc1cccc(OC)c1CON=Cc1cc(C)cc(C)n1", "note": "[compound 210]", "control performance (control efficacy)": "excellent control performance"}
    ]}
  ]
}
